Data on 14 compounds can be found in patent US20060252714A1, “Pharmaceutical compositions and methods for treating multidrug resistant cancer” (priority 2003, published 2006).

Structures can show the parent of a compound that is named as a salt. Where two headings read alike, the source gives them in different places.

The conditions of data set [1]: cited from earlier work; for Toxicity: at the toxic dose range of the same line.
Data set [2] in a line: Modulation of doxorubicin toxicity: survival. The settings on record: doxorubicin 15 mg/kg i.p., alone or after labelled reversal agent 25 mg/kg i.p. The source says:
Female Balb/c mice (8-10 weeks of age, 20-22 g of body weight) were purchased from Jackson Laboratory (Maine, USA). Protocols were approved by the Animal Care Committee of the University Health Network. […] All the treatments were administrated via i.p. After treatment, mice were kept in sterile environment for six to eight weeks. […] Three mice from each group were sacrificed on day 4-post treatment. Hearts were removed immediately and fixed in 10% neutral buffered formalin. Tissue sections were made from heart tissue and stained with hematoxylin and eosin or with 1% Toluidine blue to identify mast cells. All the slides were evaluated by light microscopy for cardiac damage, mast cell density and degranulation.
All the colony data were analyzed by two-way analysis of variance (ANOVA), with differences between individual means determined by Bonferroni's post-tests. Data were expressed as means ±SEM. The Kaplan-Meier estimate was used to determine differences in the survival periods for mice following different drug combination treatments.

In data set [3] the test system is MCF-7/adr cells. The data set can be described thus: Breast cancer clonogenic assay, MCF-7/adr. It counts as cell-based, Human. The settings on record: for IC90: Homo sapiens, NCI/ADR-RES, absence of ketotifen, read-out: IC90 of cytotoxic drugs on MCF-7/adr, −ke. As to the method:
MCF-7/adr cells were treated with different concentrations of reversal compounds with or without 2 μM doxorubicin for 24 hours. Cells were harvested, and plated for growth of breast cancer colonies in triplicates. […] DXN: doxorubicin.
FIG. 2 Influence of 10 μM of ketotifen on the toxicities of four cytotoxic drugs. MCF-7/adr cells were treated with different concentrations of chemotherapeutic agents in the presence or absence of 10 μM ketotifen for 24 hours. Cells were harvested, washed and plated for growth of breast cancer colonies as described in the Materials and Methods. […] Ke: ketotifen.
The toxicity of the cytotoxic drugs was measured by clonogenicity assay.
MCF-7/mx and MCF-7/vp cell lines were also used. Other cell lines could also be used. […] The MCF-7/vp cell line was selected with etoposide and overexpresses Multidrug Resistance-associated Protein gene (MRP). All the cell lines were grown routinely as monolayer culture in Dulbecco's Minimal Essential Media (DME) supplemented with L-glutamine (2 mM), penicillin, streptomycin and 10% heat-inactivated fetal bovine serum SUBS, GIBCO) in an atmosphere of 5% CO2 at 37° C. The cell lines were passaged weekly.
(§1) Both adherent and non-adherent cells were collected and washed with fresh medium. Cell aliquots (5×10^3) were plated in 1 ml of 0.3% agar over 1 ml of 0.5% agar underlayer prepared in IMDM containing 10% horse serum (GIBCO). The upper layer consisted of 20% FBS, 10 μg/ml of bovine insulin, 2.5 mg/ml of hydrocortisone, 5×10^−7M of 17-b-estradiol (Sigma) and 50 ng/ml of EGF (R & D Systems).

Data set [4] deals with MCF-7/adr cells. The data set can be described thus: Breast cancer clonogenic assay, MCF-7/adr. The data set is classed as cell-based. The settings on record: Homo sapiens, NCI/ADR-RES, presence of 10 mM of ketotifen (so in the source), read-out: IC90 of cytotoxic drugs on MCF-7/adr, +ke.
Data set [5] relates to MCF-7/wt. Nature of the data set: Breast cancer clonogenic assay, MCF-7/wt. It counts as cell-based. The settings on record: Homo sapiens, MCF7, 24 hours treatment, clonogenicity, read-out: IC90 of cytotoxic drugs on MCF-7/wt. How it is done: (§2) The toxicity of the cytotoxic drugs was measured by clonogenicity assay. […] Beginning at 1 μM, ketotifen restored doxorubicin toxicity while at 10 μM, the MDR phenotype of MCF-7/adr cells was completely reversed. Over this concentration range, ketotifen itself is non-toxic to MCP-7/adr cells. […] As summarized in Table 3, IC90 levels on MCF-7/adr cells in the presence of ketotifen are almost identical to those for parental MCF-7 cells. […] Thus, ketotifen is a specific reversing agent for MDR associated with P-gp.
MCF-7 (MCF-7/wt) and its multidrug resistant variant MCF-7/adr cells were used. MCF-7/mx and MCF-7/vp cell lines were also used. Other cell lines could also be used. […] The MCF-7/vp cell line was selected with etoposide and overexpresses Multidrug Resistance-associated Protein gene (MRP). All the cell lines were grown routinely as monolayer culture in Dulbecco's Minimal Essential Media (DME) supplemented with L-glutamine (2 mM), penicillin, streptomycin and 10% heat-inactivated fetal bovine serum SUBS, GIBCO) in an atmosphere of 5% CO2 at 37° C. The cell lines were passaged weekly.
as §1, with “Exponentially growing MCF-7/wt and its three mutants MCF-7/adr, MCF-7/mx and MCF-7/vp were trypsinized, washed with fresh medium and plated in 6-well plates at a density of 1×10^5/ml. […] Both” for “Both”, “Systems). Colonies larger than 50 μm in size were scored after 14 days of incubation at 37° C. in a humidified atmosphere of 5% CO2 in air.” for “Systems).”

For data set [6], the system named is P388/adr murine leukemia cells. Nature of the data set: p388 multi-drug resistant leukemia model. It counts as in vivo, Mice. The settings on record: ketotifen 75 mg/kg i.p. 30 minutes before doxorubicin 4 mg/kg i.p., once per week.
Data set [7] has as its target P-gp (Homo sapiens, UniProt P08183). The settings on record: 2.5 h, 2 μM.
Data set [8] concerns MCF-7/mx. The data set can be described thus: Breast cancer clonogenic assay, MCF-7/mx (BCRP overexpressing). The data set is classed as cell-based, Human. How it is done:
(§3) FIG. 3 Ketotifen fails to reverse MDR of MCF-7/mx and MCF-7/vp cell lines. MCF-7/mx and MCF-7/vp cell lines were treated and assayed as described in FIGS. 1 and 2. […] Ke: ketotifen.
as §2
(§4) MCF-7 (MCF-7/wt) and its multidrug resistant variant MCF-7/adr cells were used. MCF-7/mx and MCF-7/vp cell lines were also used. Other cell lines could also be used. […] The MCF-7/vp cell line was selected with etoposide and overexpresses Multidrug Resistance-associated Protein gene (MRP). […]
(§5) Exponentially growing MCF-7/wt and its three mutants MCF-7/adr, MCF-7/mx and MCF-7/vp were trypsinized, washed with fresh medium and plated in 6-well plates at a density of 1×10^5/ml. […] Colonies larger than 50 μm in size were scored after 14 days of incubation at 37° C. in a humidified atmosphere of 5% CO2 in air.

Data set [9] relates to MCF-7/vp cells. Nature of the data set: Breast cancer clonogenic assay, MCF-7/vp (MRP overexpressing). It counts as cell-based, Human. As to the method: as §3, §2, §4, §5
Setting [10] is: with 2 μM doxorubicin, 24 hours.

Chain of P-gp (P08183 whole entry): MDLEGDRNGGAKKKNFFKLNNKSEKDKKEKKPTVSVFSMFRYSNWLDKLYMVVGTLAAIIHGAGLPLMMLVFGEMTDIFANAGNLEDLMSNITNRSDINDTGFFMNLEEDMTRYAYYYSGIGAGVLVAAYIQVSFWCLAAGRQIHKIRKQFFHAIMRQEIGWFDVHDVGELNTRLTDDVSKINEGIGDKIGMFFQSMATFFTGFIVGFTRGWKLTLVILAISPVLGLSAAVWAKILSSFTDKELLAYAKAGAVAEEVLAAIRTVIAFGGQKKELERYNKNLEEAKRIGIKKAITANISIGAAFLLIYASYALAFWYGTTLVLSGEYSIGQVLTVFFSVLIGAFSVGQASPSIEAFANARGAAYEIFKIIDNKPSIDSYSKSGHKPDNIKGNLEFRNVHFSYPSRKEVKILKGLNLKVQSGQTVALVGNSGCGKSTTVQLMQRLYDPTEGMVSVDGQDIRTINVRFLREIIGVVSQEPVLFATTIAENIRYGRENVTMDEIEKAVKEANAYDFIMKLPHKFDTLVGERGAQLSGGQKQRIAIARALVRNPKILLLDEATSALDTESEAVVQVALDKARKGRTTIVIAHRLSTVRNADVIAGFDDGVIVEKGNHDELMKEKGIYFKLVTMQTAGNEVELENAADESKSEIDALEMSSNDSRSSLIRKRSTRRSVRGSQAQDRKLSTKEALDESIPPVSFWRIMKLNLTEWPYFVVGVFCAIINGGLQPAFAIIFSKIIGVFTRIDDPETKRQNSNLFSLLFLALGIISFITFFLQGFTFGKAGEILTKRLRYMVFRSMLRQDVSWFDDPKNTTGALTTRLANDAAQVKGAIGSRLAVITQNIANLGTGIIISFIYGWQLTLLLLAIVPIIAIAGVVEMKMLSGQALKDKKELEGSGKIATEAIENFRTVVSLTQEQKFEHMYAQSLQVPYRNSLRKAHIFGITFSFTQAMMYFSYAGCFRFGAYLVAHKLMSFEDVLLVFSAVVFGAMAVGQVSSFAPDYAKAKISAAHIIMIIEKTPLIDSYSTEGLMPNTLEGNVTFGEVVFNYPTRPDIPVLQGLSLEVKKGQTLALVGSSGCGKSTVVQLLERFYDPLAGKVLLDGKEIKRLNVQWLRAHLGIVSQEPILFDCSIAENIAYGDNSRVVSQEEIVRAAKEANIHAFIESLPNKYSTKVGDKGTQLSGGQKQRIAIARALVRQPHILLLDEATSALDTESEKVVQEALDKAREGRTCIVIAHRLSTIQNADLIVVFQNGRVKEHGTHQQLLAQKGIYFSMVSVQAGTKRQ

Take `COc1cc(NS(C)(=O)=O)ccc1Nc1c2ccccc2nc2ccccc12` [Amsacrine]: the Toxicity result in [1] is given as “Ventricular arrhythmia”.

Take `CS(=O)(=O)OCCCCOS(C)(=O)=O` [Bisulfan]: the “Toxic dose range” value in data set [1] (IV unless otherwise indicated) is reported as “Oral daily dose”. Further, the Toxicity result in [1] is recorded as “Endocardial fibrosis”.

Regarding `O=P1(N(CCCl)CCCl)NCCCO1` (centres unmarked) [Cyclophosphamide], the Toxic dose range in data set [1] (over 2 d, IV) is >100 to 120 mg/kg.

With `COc1cccc2c1C(=O)c1c(O)c3c(c(O)c1C2=O)C[C@@](O)(C(C)=O)C[C@@H]3O[C@H]1C[C@H](N)[C@H](O)[C@H](C)O1` [Daunorubicin], the Toxicity entry in data set [1] was “Same toxocity as doxorubicin”. In [1] (total dose, IV), the Toxic dose range was >550 mg/m^2.

For the compound `COc1cccc2c1C(=O)c1c(O)c3c(c(O)c1C2=O)C[C@@](O)(C(=O)CO)C[C@@H]3O[C@H]1C[C@H](N)[C@H](O)[C@H](C)O1` [Doxorubicin, 8S,10S)-10-[(3-amino-2,3,6-trideoxy-a-L-lyxo-hexopyranosyl)oxy]-8-glycolyl-7,8,9,10-tetrahydro-6,8,11-trihydroxy-1-methoxy-5,12-naphthacenedione hydrochloride], the median survival time in [2] is on record as 19.3 days. The “survival rate at day 30” value in data set [2] is 42%. The IC90 in data set [3] is > 10 µM; in [4], 0.18 µM; in [5] it was 0.12 µM.

Turning to `O=c1[nH]cc(F)c(=O)[nH]1` [Fluorouracil], in [1], the Toxicity result was “Angina/myocardial infarction”.

Take `CO[C@@]12[C@H](COC(N)=O)C3=C(C(=O)C(C)=C(N)C3=O)N1C[C@@H]1N[C@@H]12` [Mitomycin]: the “Toxic dose range” value in [1] (IV unless otherwise indicated) is listed as “Conventional dose”.

For the compound `O=C1c2c(O)ccc(O)c2C(=O)c2c(NCCNCCO)ccc(NCCNCCO)c21` [Mitoxantrone], the IC90 in data set [3] stood at 0.22 µM; in [4] it was 0.02 µM; in data set [5], 0.01 µM.

In the case of `CC(=O)O[C@H]1C(=O)[C@@]2(C)[C@H]([C@H](OC(=O)c3ccccc3)[C@]3(O)C[C@H](OC(=O)[C@H](O)[C@@H](NC(=O)c4ccccc4)c4ccccc4)C(C)=C1C3(C)C)[C@]1(OC(C)=O)CO[C@@H]1C[C@@H]2O` [Paclitaxel], in data set [1], the Toxicity entry is “Bradycardia”.

With `COc1cc([C@@H]2c3cc4c(cc3[C@@H](O[C@@H]3O[C@@H]5CO[C@@H](C)O[C@H]5[C@H](O)[C@H]3O)[C@H]3COC(=O)[C@H]23)OCO4)cc(OC)c1O` [VP-16, etoposide], the IC90 in data set [3] stood at 220 µM; in data set [4], 20 µM; in [5], 17 µM.

For `CC[C@]1(O)C[C@@H]2CN(CCc3c([nH]c4ccccc34)[C@@](C(=O)OC)(c3cc4c(cc3OC)N(C)[C@H]3[C@@](O)(C(=O)OC)[C@H](OC(C)=O)[C@]5(CC)C=CCN6CC[C@]43[C@@H]65)C2)C1` [Vinblastine], the values for the IC90 in [3], in [4] and in data set [5] were 410 µM, 1.2 µM and 0.8 µM, respectively.

Turning to `CC[C@]1(O)C[C@H]2CN(CCc3c([nH]c4ccccc34)[C@@](C(=O)OC)(c3cc4c(cc3OC)N(C=O)[C@H]3[C@@](O)(C(=O)OC)[C@H](OC(C)=O)[C@]5(CC)C=CCN6CC[C@]43[C@@H]65)C2)C1` [Vincristine], in [1] (IV unless otherwise indicated), the “Toxic dose range” value was “Conventional dose”. Moreover, the Toxicity result in data set [1] is “Myocardial Infarction”.

With `CN1CCC(=C2c3ccccc3CC(=O)c3sccc32)CC1.O=C(O)/C=C/C(=O)O` [ketotifen, 4-(1-Methyl-4-piperidylidene)-4H-benzo[4,5]cyclohepta[1,2-b] thiophen-10(9H)-one hydrogen fumarate], in data set [2], the median survival time was 23.2 days and the “survival rate at day 30” value was 57%. Further, in data set [3] (10 μM ketotifen), the “sensitivity to mitoxantrone, VP-16 and vinblastine” value is listed as “restored”. Also, the “reversal of doxorubicin resistance” value in [3] (ketotifen compared with verapamil) is listed as “reverse resistance at similar concentrations”. In data set [3] (over 1 to 10 μM, without doxorubicin), the “toxicity of ketotifen itself” value was “non-toxic”. Further, in data set [3] (setting [10]), the “ketotifen concentration at which MDR phenotype was completely reversed” value came out at 10 µM and the “ketotifen concentration from which doxorubicin toxicity is restored” value was ≥ 1 µM. The “extension of survival compared to doxorubicin alone” value in [6] stood at 2 days. In addition, in data set [7], the “increase of doxorubicin relative fluorescence” value was 50%. Moreover, the “influence on toxicity of mitoxantrone” value in data set [8] is “influenced neither”. For the same compound, the “influence on toxicity of VP-16” value in data set [9] is “influenced neither”.

`COc1ccc(CCN(C)CCCC(C#N)(c2ccc(OC)c(OC)c2)C(C)C)cc1OC` (centres unmarked) [verapamil]: in data set [2], the median survival time stood at 12.3 days and the “survival rate at day 30” value came out at 0%.
